This is an account of results in ChEMBL document CHEMBL1129276, “Synthesis of 2'-aminomethyl derivatives of N-(2-(phosphonomethoxy)ethyl) nucleotide analogues as potential antiviral agents” (1996).

Holding throughout (type): functional
Test [1] has as its system MT4. Kind of test: Compound was tested in vitro for Minimum inhibitory concentration required to reduce CMV(AD-169) induced cytopathicity in Human MT-4 cells. (Cytopathic effects are the visible damage that an infection or toxin causes in cultured cells.)
The test system of test [2] is MT4. Kind of test: Compound was tested in vitro for Minimum inhibitory concentration required to reduce CMV(Davis) induced cytopathicity in Human MT-4 cells.
Test [3] relates to MT4. Briefly: Compound was tested in vitro for Minimum inhibitory concentration required to reduce VZV TK+(OKA) induced cytopathicity in Human MT-4 cells.
In test [4] the test system is MT4. Briefly: Compound was tested in vitro for Minimum inhibitory concentration required to reduce VZV TK+(YS) induced cytopathicity in Human MT-4 cells.
Test [5] concerns MT4. Briefly: Compound was tested in vitro for Minimum inhibitory concentration required to reduce VZV TK-(YS/R) induced cytopathicity in Human MT-4 cells.
Test [6] deals with HEL. Briefly: Compound was tested in vitro for Minimum inhibitory concentration required to reduce CMV(AD-169) induced cytopathicity in HEL cells. As to conditions: Homo sapiens.
The subject of test [7] is HEL. Briefly: Compound was tested in vitro for Minimum inhibitory concentration required to reduce CMV(Davis) induced cytopathicity in HEL cells. As to conditions: Homo sapiens.
Test [8] concerns HEL. Briefly: Compound was tested in vitro for Minimum inhibitory concentration required to reduce VZV TK+(OKA) induced cytopathicity in HEL cells. As to conditions: Homo sapiens.
The subject of test [9] is HEL. Kind of test: Compound was tested in vitro for Minimum inhibitory concentration required to reduce VZV TK-(YS/R) induced cytopathicity in HEL cells. As to conditions: Homo sapiens.
Test [10] has as its system HEL. Kind of test: Compound was tested in vitro for Minimum inhibitory concentration required to reduce VZV TK+(YS) induced cytopathicity in HEL cells. As to conditions: Homo sapiens.
Test [11] relates to HEL. Briefly: Minimum inhibitory concentration required to reduce VZV TK-(07-1) induced cytopathicity in HEL cells. As to conditions: Homo sapiens.
Test [12] concerns HEL. Kind of test: Compound was tested in vitro for Minimum inhibitory concentration required to reduce CMV (AD-169) induced cytopathicity in HEL cells. As to conditions: Homo sapiens.
The next test concerns C3H/3T3. Kind of test: Compound was tested in vitro for Minimum inhibitory concentration required to reduce MSV induced cytopathicity in murine C3H/3T3 embryo fibroblasts. As to conditions: Mus musculus.
Another test deals with E6SM. Kind of test: Compound was tested in vitro for minimum inhibitory concentration required to reduce HSV-1(KOS) induced cytopathicity in E6SM cells. As to conditions: Homo sapiens.
The subject of test [13] is MT4. Briefly: Compound was tested in vitro for Minimum inhibitory concentration required to reduce HSV-1 TK-(B2006) induced cytopathicity in Human MT-4 cells.
The subject of test [14] is MT4. Briefly: Compound was tested in vitro for Minimum inhibitory concentration required to reduce HSV-1(IIIb) induced cytopathicity in Human MT-4 cells.
Test [15] relates to MT4. Kind of test: Compound was tested in vitro for Minimum inhibitory concentration required to reduce HSV-2(ROD) induced cytopathicity in Human MT-4 cells.
The test system of test [16] is MT4. Briefly: Compound was tested in vitro for minimum inhibitory concentration required to reduce HSV-1(KOS) induced cytopathicity in Human MT-4 cells.
In test [17] the test system is MT4. Kind of test: Minimum inhibitory concentration required to reduce VZV TK-(07-1) induced cytopathicity in Human MT-4 cells.
Test [18] concerns HEL. Kind of test: Compound was tested in vitro for Minimum inhibitory concentration required to reduce VZV TK-(07-1) induced cytopathicity in HEL cells. As to conditions: Homo sapiens.

In brackets after ≈: the same amount, converted by molar mass.

In the case of `NCC(Cn1cnc2c(N)ncnc21)OCP(=O)(O)O` (stereo unspecified), the MIC against MT4 [1] is 15 µg/mL (≈ 49.6 µM); against MT4 [2] it was 35 µg/mL (≈ 116 µM); against MT4 [3], 11 µg/mL (≈ 36.4 µM); with MT4 [4], 7 µg/mL (≈ 23.2 µM); in the test on MT4 [5], 7 µg/mL (≈ 23.2 µM).
Turning to `CN(C)CC(Cn1cnc2c(N)ncnc21)OCP(=O)(O)O` (stereo unspecified), the MIC in the test on HEL [6], against HEL [7], with HEL [8], in the test with HEL [9], against HEL [10] and with HEL [11] was > 20000 µg/mL each time.
On to `Nc1ncnc2c1ncn2CC(CNC(=O)c1ccccc1C(=O)O)OCP(=O)(O)O` (stereo unspecified), for which the MIC against HEL [6], in the test on HEL [7], with HEL [8], in the test with HEL [9], in the test on HEL [10] and with HEL [11] was > 50000 µg/mL throughout.
Take `C[N+](C)(C)CC(Cn1cnc2c(N)nc(N)nc21)OCP(=O)(O)O` (stereo unspecified): the MIC against HEL [10] and against HEL [12] was > 50000 µg/mL each time.
Regarding `Nc1ncnc2c1ncn2CC(CN1CCOCC1)OCP(=O)(O)O` (stereo unspecified), the MIC against C3H/3T3 is 25000 µg/mL (≈ 67100 µM); in the test on E6SM, 70000 µg/mL (≈ 188000 µM); in the test on HEL [6], > 50000 µg/mL; against HEL [7], > 50000 µg/mL; with HEL [8] it was > 50000 µg/mL; with HEL [9] it was > 50000 µg/mL. Besides, the MIC in the test with HEL [10] and with HEL [11] was > 50000 µg/mL each time.
`Nc1nc(N)c2ncn(CC(CNC(=O)c3ccccc3C(=O)O)OCP(=O)(O)O)c2n1` (stereo unspecified): the MIC in the test with HEL [6], in the test with HEL [7], with HEL [8], in the test with HEL [9], in the test on HEL [10] and against HEL [11] was > 50000 µg/mL throughout.
Regarding `Nc1ncnc2c1ncn2C[C@@H](CO)OCP(=O)(O)O`, the MIC against MT4 [1] was 0.15 µg/mL (≈ 0.495 µM); in the test on MT4 [2], 0.2 µg/mL (≈ 0.66 µM); with MT4 [13], 0.1 µg/mL (≈ 0.33 µM); with MT4 [14], > 20 µg/mL; with MT4 [15], > 20 µg/mL; with MT4 [3], 0.03 µg/mL (≈ 0.0989 µM). Further, the MIC against MT4 [4] was determined as 0.05 µg/mL (≈ 0.165 µM); against MT4 [5], 0.01 µg/mL (≈ 0.033 µM); in the test with MT4 [16], 0.2 µg/mL (≈ 0.66 µM); with MT4 [17], 0.04 µg/mL (≈ 0.132 µM).
Take `C[N+](C)(C)CC(Cn1cnc2c(O)nc(N)nc21)OCP(=O)(O)O` (stereo unspecified): the MIC against HEL [6], against HEL [8] and against HEL [10] was > 50000 µg/mL each time.
As to `C[N+](C)(C)CC(Cn1cnc2c(N)ncnc21)OCP(=O)(O)O` (stereo unspecified), the MIC in the test on HEL [6], in the test with HEL [7], in the test on HEL [8], against HEL [18] and against HEL [10] was > 50000 µg/mL in each case.
On to `Nc1ncnc2c1ncn2CCOCP(=O)(O)O` [ADEFOVIR], for which the MIC in the test on MT4 [1] was 28 µg/mL (≈ 102 µM); against MT4 [2] it was 29 µg/mL (≈ 106 µM); with MT4 [13], 20 µg/mL (≈ 73.2 µM); in the test with MT4 [14] it was 1.5 µg/mL (≈ 5.49 µM); with MT4 [15] it was 1.5 µg/mL (≈ 5.49 µM); against MT4 [3], 25 µg/mL (≈ 91.5 µM). The MIC turned out to be 31 µg/mL (≈ 113 µM) against MT4 [4], 14 µg/mL (≈ 51.2 µM) in the test with MT4 [5], 7 µg/mL (≈ 25.6 µM) in the test with MT4 [16] and 14 µg/mL (≈ 51.2 µM) in the test with MT4 [17].
